# Data from ChEMBL document CHEMBL1156506, “Changes to the HIV long terminal repeat and to HIV integrase differentially impact HIV integrase assembly, activity, and the binding of strand transfer inhibitors” (J Biol Chem, 2007).
# Assays:
# [1] = tested on: Human immunodeficiency virus; assay: Inhibition of HIV wild type integrase assessed as strand transfer activity using U5 ApTCA LTR by scintillation proximity assay relative to wild type LTR; design: scale not given: the % may be the effect or the level left; details: tested as the 3H-labelled form
# [2] = tested on: Human immunodeficiency virus; assay: Binding affinity to HIV wild type integrase U5 CTCA LTR relative to wild type LTR; details: tested as the 3H-labelled form
# [3] = tested on: Human immunodeficiency virus type 1 integrase (Human immunodeficiency virus 1), Q7ZJM1 [N155H]; assay: Inhibition of HIV recombinant integrase N155H mutant assessed as specific strand transfer activity using U5 dTCA LTR by scintillation proximity assay relative to wild type LTR; design: scale not given: the % may be the effect or the level left; details: tested as the 3H-labelled form
# [4] = tested on: Human immunodeficiency virus type 1 integrase (Human immunodeficiency virus 1), Q7ZJM1 [N155H]; assay: Binding affinity to HIV recombinant integrase N155H mutant using U5 GTC LTR relative to wild type LTR; details: tested as the 3H-labelled form
# [5] = tested on: Human immunodeficiency virus; assay: Inhibition of HIV wild type integrase assessed as strand transfer activity using U5 INTCA LTR by scintillation proximity assay relative to wild type LTR; design: scale not given: the % may be the effect or the level left; details: tested as the 3H-labelled form
# [6] = tested on: Human immunodeficiency virus type 1 integrase (Human immunodeficiency virus 1), Q7ZJM1 [Q148R]; assay: Binding affinity to HIV recombinant integrase Q148R mutant using U5 GTdA LTR relative to wild type LTR; details: tested as the 3H-labelled form
# [7] = tested on: Human immunodeficiency virus; assay: Inhibition of HIV wild type integrase assessed as strand transfer activity using U5 dTCA LTR by scintillation proximity assay relative to wild type LTR; design: scale not given: the % may be the effect or the level left; details: tested as the 3H-labelled form
# [8] = tested on: Human immunodeficiency virus type 1 integrase (Human immunodeficiency virus 1), Q7ZJM1 [N155H]; assay: Binding affinity to HIV recombinant integrase N155H mutant using U5 GdCA LTR relative to wild type LTR; details: tested as the 3H-labelled form
# [9] = tested on: Human immunodeficiency virus; assay: Binding affinity to HIV wild type integrase using U5 GdC LTR relative to wild type LTR; details: tested as the 3H-labelled form
# [10] = tested on: Human immunodeficiency virus; assay: Inhibition of U5 GddA LTR HIV wild type integrase assessed as strand transfer activity using by scintillation proximity assay relative to wild type LTR; design: scale not given: the % may be the effect or the level left; details: tested as the 3H-labelled form
# [11] = tested on: Human immunodeficiency virus; assay: Inhibition of HIV wild type integrase assessed as specific strand transfer activity using U5 GInCA LTR by scintillation proximity assay relative to wild type LTR; design: scale not given: the % may be the effect or the level left; details: tested as the 3H-labelled form
# [12] = tested on: Human immunodeficiency virus type 1 integrase (Human immunodeficiency virus 1), Q7ZJM1 [Q148R]; assay: Inhibition of U5 GTdA LTR HIV recombinant integrase Q148R mutant assessed as specific strand transfer activity using by scintillation proximity assay relative to wild type LTR; design: scale not given: the % may be the effect or the level left; details: tested as the 3H-labelled form
# [13] = tested on: Human immunodeficiency virus; assay: Inhibition of HIV wild type integrase assessed as specific strand transfer activity using U5 INTCA LTR by scintillation proximity assay relative to wild type LTR; design: scale not given: the % may be the effect or the level left; details: tested as the 3H-labelled form
# [14] = tested on: Human immunodeficiency virus; assay: Inhibition of HIV wild type integrase assessed as specific strand transfer activity using U5 GACA LTR by scintillation proximity assay relative to wild type LTR; design: scale not given: the % may be the effect or the level left; details: tested as the 3H-labelled form
# [15] = tested on: Human immunodeficiency virus type 1 integrase (Human immunodeficiency virus 1), Q7ZJM1 [N155H]; assay: Binding affinity to HIV recombinant integrase N155H mutant using U5 GTCA LTR relative to wild type LTR; details: tested as the 3H-labelled form
# [16] = tested on: Human immunodeficiency virus; assay: Inhibition of HIV wild type integrase assessed as strand transfer activity using U5 GGCA LTR by scintillation proximity assay relative to wild type LTR; design: scale not given: the % may be the effect or the level left; details: tested as the 3H-labelled form
# [17] = tested on: Human immunodeficiency virus; assay: Inhibition of HIV wild type integrase assessed as specific strand transfer activity using U5 GTAA LTR by scintillation proximity assay relative to wild type LTR; design: scale not given: the % may be the effect or the level left; details: tested as the 3H-labelled form
# [18] = tested on: Human immunodeficiency virus type 1 integrase (Human immunodeficiency virus 1), Q7ZJM1 [N155H]; assay: Binding affinity to HIV recombinant integrase N155H mutant using U5 INTCA LTR relative to wild type LTR; details: tested as the 3H-labelled form
# [19] = Inhibition of HIV wild type integrase strand transfer activity; design: species or system Human immunodeficiency virus
# [20] = tested on: Human immunodeficiency virus; assay: Inhibition of HIV wild type integrase assessed as strand transfer activity usingU5 GTCA/CT LTR by scintillation proximity assay relative to wild type LTR; design: scale not given: the % may be the effect or the level left; details: tested as the 3H-labelled form
# [21] = tested on: Human immunodeficiency virus type 1 integrase (Human immunodeficiency virus 1), Q7ZJM1 [Q148R]; assay: Binding affinity to HIV recombinant integrase Q148R mutant using U5 TTCA LTR relative to wild type LTR; details: tested as the 3H-labelled form
# [22] = tested on: Human immunodeficiency virus; assay: Binding affinity to HIV wild type integrase using U5 GTdA LTR relative to wild type LTR; details: tested as the 3H-labelled form
# [23] = tested on: Human immunodeficiency virus type 1 integrase (Human immunodeficiency virus 1), Q7ZJM1 [Q148R]; assay: Binding affinity to HIV recombinant integrase Q148R mutant using U5 GdCA LTR relative to wild type LTR; details: tested as the 3H-labelled form
# [24] = tested on: Human immunodeficiency virus type 1 integrase (Human immunodeficiency virus 1), Q7ZJM1 [N155H]; assay: Inhibition of HIV recombinant integrase N155H mutant assessed as strand transfer activity using U5 GTdA LTR by scintillation proximity assay relative to wild type LTR; design: scale not given: the % may be the effect or the level left; details: tested as the 3H-labelled form
# [25] = tested on: Human immunodeficiency virus; assay: Binding affinity to HIV wild type integrase using U5 GCCA LTR relative to wild type LTR; details: tested as the 3H-labelled form
# [26] = tested on: Human immunodeficiency virus type 1 integrase (Human immunodeficiency virus 1), Q7ZJM1 [N155H]; assay: Binding affinity to HIV recombinant integrase N155H mutant using U5 ApTCA LTR relative to wild type LTR; details: tested as the 3H-labelled form
# [27] = tested on: Human immunodeficiency virus; assay: Inhibition of HIV wild type integrase assessed as strand transfer activity using U5 GTCC LTR by scintillation proximity assay relative to wild type LTR; design: scale not given: the % may be the effect or the level left; details: tested as the 3H-labelled form
# [28] = tested on: Human immunodeficiency virus type 1 integrase (Human immunodeficiency virus 1), Q7ZJM1 [N155H]; assay: Inhibition of HIV recombinant integrase N155H mutant assessed as strand transfer activity using U5 TTCA LTR by scintillation proximity assay relative to wild type LTR; design: scale not given: the % may be the effect or the level left; details: tested as the 3H-labelled form
# [29] = tested on: Human immunodeficiency virus; assay: Inhibition of HIV wild type integrase assessed as strand transfer activity using U5 GTAC LTR by scintillation proximity assay relative to wild type LTR; design: scale not given: the % may be the effect or the level left; details: tested as the 3H-labelled form
# [30] = tested on: Human immunodeficiency virus; assay: Inhibition of HIV wild type integrase assessed as strand transfer activity using U5 GACA LTR by scintillation proximity assay relative to wild type LTR; design: scale not given: the % may be the effect or the level left; details: tested as the 3H-labelled form
# [31] = tested on: Human immunodeficiency virus; assay: Binding affinity to HIV wild type integrase using U5 GTAT LTR relative to wild type LTR; details: tested as the 3H-labelled form
# [32] = tested on: Human immunodeficiency virus; assay: Binding affinity to HIV wild type integrase using U5 ATCA LTR relative to wild type LTR; details: tested as the 3H-labelled form
# [33] = tested on: Human immunodeficiency virus; assay: Inhibition of HIV wild type integrase assessed as specific strand transfer activity using U5 GTCA LTR by scintillation proximity assay relative to wild type LTR; design: scale not given: the % may be the effect or the level left; details: tested as the 3H-labelled form
# [34] = tested on: Human immunodeficiency virus; assay: Binding affinity to HIV wild type integrase using U5 GTC LTR relative to wild type LTR; details: tested as the 3H-labelled form
# [35] = tested on: Human immunodeficiency virus; assay: Binding affinity to HIV wild type integrase using U5 GTCAGT LTR relative to wild type LTR; details: tested as the 3H-labelled form
# [36] = tested on: Human immunodeficiency virus type 1 integrase (Human immunodeficiency virus 1), Q7ZJM1 [N155H]; assay: Inhibition of HIV recombinant integrase N155H mutant assessed as specific strand transfer activity using U5 ApTCA LTR by scintillation proximity assay relative to wild type LTR; design: scale not given: the % may be the effect or the level left; details: tested as the 3H-labelled form
# [37] = tested on: Human immunodeficiency virus; assay: Inhibition of HIV wild type integrase assessed as specific strand transfer activity using U5 GTTA LTR by scintillation proximity assay relative to wild type LTR; design: scale not given: the % may be the effect or the level left; details: tested as the 3H-labelled form
# [38] = tested on: Human immunodeficiency virus; assay: Binding affinity to HIV wild type integrase using U5 GTGA LTR relative to wild type LTR; details: tested as the 3H-labelled form
# [39] = tested on: Human immunodeficiency virus type 1 integrase (Human immunodeficiency virus 1), Q7ZJM1 [Q148R]; assay: Inhibition of U5 INTCA LTR HIV recombinant integrase Q148R mutant assessed as specific strand transfer activity using by scintillation proximity assay relative to wild type LTR; design: scale not given: the % may be the effect or the level left; details: tested as the 3H-labelled form
# [40] = tested on: Human immunodeficiency virus; assay: Binding affinity to HIV wild type integrase using U5 GTTC LTR relative to wild type LTR; details: tested as the 3H-labelled form
# [41] = tested on: Human immunodeficiency virus; assay: Binding affinity to HIV wild type integrase using U5 GGCA LTR relative to wild type LTR; details: tested as the 3H-labelled form
# [42] = tested on: Human immunodeficiency virus; assay: Inhibition of HIV wild type integrase assessed as strand transfer activity using U5 TTCA LTR by scintillation proximity assay relative to wild type LTR; design: scale not given: the % may be the effect or the level left; details: tested as the 3H-labelled form
# [43] = tested on: Human immunodeficiency virus; assay: Inhibition of HIV wild type integrase assessed as strand transfer activity using U5 GTCAGT LTR by scintillation proximity assay relative to wild type LTR; design: scale not given: the % may be the effect or the level left; details: tested as the 3H-labelled form
# [44] = tested on: Human immunodeficiency virus; assay: Binding affinity to HIV wild type integrase using U5 GTCACA LTR relative to wild type LTR; details: tested as the 3H-labelled form
# [45] = tested on: Human immunodeficiency virus; assay: Binding affinity to HIV wild type integrase using U5 GACA LTR relative to wild type LTR; details: tested as the 3H-labelled form
# [46] = tested on: Human immunodeficiency virus type 1 integrase (Human immunodeficiency virus 1), Q7ZJM1 [Q148R]; assay: Binding affinity to HIV recombinant integrase Q148R mutant using U5 INTCA LTR relative to wild type LTR; details: tested as the 3H-labelled form
smiles,measurement,setting,value
Cn1c(N2CCCCS2(=O)=O)nc(C(=O)NCc2ccc(F)cc2)c(O)c1=O [BMS-707035],Activity,[1],2%
same,Activity,[2],< 25%
same,Activity,[3],> 40%
same,Activity,[4],4%
same,Activity,[5],45%
same,Activity,[6],2%
same,Activity,[7],10%
same,Activity,[8],21%
same,Activity,[9],36%
same,Activity,[10],1%
same,Activity,[11],115%
same,Activity,[12],> 50%
same,Activity,[13],167%
same,Activity,[14],97%
same,Activity,[15],10%
same,Activity,[16],< 25%
same,Activity,[17],52%
same,Activity,[18],21%
same,IC50,[19],15 nM
same,Activity,[20],< 25%
same,Activity,[21],1%
same,Activity,[22],37%
same,Activity,[23],3%
same,Activity,[24],17%
same,Activity,[25],75%
same,Activity,[26],2%
same,Activity,[27],75%
same,Activity,[28],4%
same,Activity,[29],< 25%
same,Activity,[30],75%
same,Activity,[31],< 25%
same,Activity,[32],< 25%
same,Activity,[33],100%
same,Activity,[34],59%
same,Activity,[35],75%
same,Activity,[36],> 40%
same,Activity,[37],143%
same,Activity,[38],74%
same,Activity,[39],> 12%
same,Activity,[40],25%
same,Activity,[41],< 25%
same,Activity,[42],25%
same,Activity,[43],75%
same,Activity,[44],75%
same,Activity,[45],25%
same,Activity,[46],2%
